Laboratory results reported in ChEMBL document CHEMBL3885861, “Open TG-GATES”.

Species: Rattus norvegicus
Assay: Open TG-GATES - Regimen: Daily Repeat
Assay type: toxicity, organism-based, Sprague-Dawley
Parameters: regimen Daily Repeat, gender Male, age 6 weeks
Conditions: in vivo, po, 300 mg/kg, route gavage, dose level High; for APTT / Bas / Eos / Fbg / Hb / Ht / Lym / MCH / MCHC / MCV / Mono / Neu / PT / Plat / RBC / Ret / WBC: tissue Blood; for KIDNEY_L / KIDNEY_R / KIDNEY_TOTAL: tissue Kidney; for LIVER: tissue Liver; for A/G / ALP / ALT / AST / BUN / CRE / Ca / Cl / DBIL / GLC / IP / K / LDH / Na / PL / RALB / TBIL / TC / TG / TP / gamma-GTP: tissue Plasma

SMILES: Clc1c(Cl)c(Cl)c(Cl)c(Cl)c1Cl [PERCHLOROBENZENE]
- TERMINAL_BW (72 h, time 3 day): 226 g
- APTT (72 h, time 3 day): 15.9 s
- Bas (72 h, time 3 day): 0%
- Eos (72 h, time 3 day): 1.2%
- Fbg (72 h, time 3 day): 225.4 mg/dL
- Hb (72 h, time 3 day): 14.3 g/dL
- Ht (72 h, time 3 day): 42.9%
- Lym (72 h, time 3 day): 71.2%
- MCH (72 h, time 3 day): 21.6 pg
- MCHC (72 h, time 3 day): 33.2%
- MCV (72 h, time 3 day): 65.2 fL
- Mono (72 h, time 3 day): 10.6%
- Neu (72 h, time 3 day): 16.8%
- PT (72 h, time 3 day): 11 s
- Plat (72 h, time 3 day): 98.4 x10_4/uL
- RBC (72 h, time 3 day): 658.8 x10_4/ul
- Ret (72 h, time 3 day): 8%
- WBC (72 h, time 3 day): 106.3 x10_2/uL
- KIDNEY_L (72 h, time 3 day): 1 g
- KIDNEY_R (72 h, time 3 day): 1 g
- KIDNEY_TOTAL (72 h, time 3 day): 2 g
- LIVER (72 h, time 3 day): 13.7 g
- A/G (72 h, time 3 day): 2.1
- ALP (72 h, time 3 day): 720.6 IU/L
- ALT (72 h, time 3 day): 41 IU/L
- AST (72 h, time 3 day): 64.8 IU/L
- BUN (72 h, time 3 day): 15 mg/dL
- CRE (72 h, time 3 day): 0.6 mg/dL
- Ca (72 h, time 3 day): 10.7 mg/dL
- Cl (72 h, time 3 day): 105.8 meq/L
- DBIL (72 h, time 3 day): 0.002 mg/dL
- GLC (72 h, time 3 day): 184 mg/dL
- IP (72 h, time 3 day): 8.3 mg/dL
- K (72 h, time 3 day): 5.1 meq/L
- LDH (72 h, time 3 day): 186 IU/L
- Na (72 h, time 3 day): 138.8 meq/L
- PL (72 h, time 3 day): 165.8 mg/dL
- RALB (72 h, time 3 day): 3.9 g/dL
- TBIL (72 h, time 3 day): 0.5 mg/dL
- TC (72 h, time 3 day): 92.2 mg/dL
- TG (72 h, time 3 day): 160.4 mg/dL
- TP (72 h, time 3 day): 5.7 g/dL
- gamma-GTP (72 h, time 3 day): 1.4 IU/L
- TERMINAL_BW ([…], time 7 day): 262.7 g
- TERMINAL_BW ([…], time 14 day): 310.5 g
- TERMINAL_BW ([…], time 28 day): 358.3 g
- APTT ([…], time 7 day): 16.1 s
- Bas ([…], time 7 day): 0%
- Eos ([…], time 7 day): 1%
- Fbg ([…], time 7 day): 255.6 mg/dL
- Hb ([…], time 7 day): 14.2 g/dL
- Ht ([…], time 7 day): 43.1%
- Lym ([…], time 7 day): 71.2%
- MCH ([…], time 7 day): 21.5 pg
- MCHC ([…], time 7 day): 33%
- MCV ([…], time 7 day): 65 fL
- Mono ([…], time 7 day): 9.4%
- Neu ([…], time 7 day): 18.4%
- PT ([…], time 7 day): 11.2 s
- Plat ([…], time 7 day): 115 x10_4/uL
- RBC ([…], time 7 day): 662 x10_4/ul
- Ret ([…], time 7 day): 6.3%
- WBC ([…], time 7 day): 117.1 x10_2/uL
- APTT ([…], time 14 day): 20.8 s
- Bas ([…], time 14 day): 0%
- Eos ([…], time 14 day): 1.2%
- Fbg ([…], time 14 day): 280.2 mg/dL
- Hb ([…], time 14 day): 13.9 g/dL
- Ht ([…], time 14 day): 41.6%
- Lym ([…], time 14 day): 67.8%
- MCH ([…], time 14 day): 20.7 pg
- MCHC ([…], time 14 day): 33.3%
- MCV ([…], time 14 day): 62.1 fL
- Mono ([…], time 14 day): 14.8%
- Neu ([…], time 14 day): 16.4%
- PT ([…], time 14 day): 12.7 s
- Plat ([…], time 14 day): 120.7 x10_4/uL
- RBC ([…], time 14 day): 669.4 x10_4/ul
- Ret ([…], time 14 day): 4.2%
- WBC ([…], time 14 day): 140.9 x10_2/uL
- APTT ([…], time 28 day): 22.1 s
- Bas ([…], time 28 day): 0%
- Eos ([…], time 28 day): 1.8%
- Fbg ([…], time 28 day): 305.4 mg/dL
- Hb ([…], time 28 day): 15.1 g/dL
- Ht ([…], time 28 day): 45.5%
- Lym ([…], time 28 day): 73.2%
- MCH ([…], time 28 day): 19.4 pg
- MCHC ([…], time 28 day): 33.2%
- MCV ([…], time 28 day): 58.4 fL
- Mono ([…], time 28 day): 11.8%
- Neu ([…], time 28 day): 13.4%
- PT ([…], time 28 day): 14 s
- Plat ([…], time 28 day): 92 x10_4/uL
- RBC ([…], time 28 day): 779.6 x10_4/ul
- Ret ([…], time 28 day): 2.9%
- WBC ([…], time 28 day): 161.2 x10_2/uL
- KIDNEY_L ([…], time 7 day): 1.2 g
- KIDNEY_R ([…], time 7 day): 1.3 g
- KIDNEY_TOTAL ([…], time 7 day): 2.5 g
- KIDNEY_L ([…], time 14 day): 1.4 g
- KIDNEY_R ([…], time 14 day): 1.3 g
- KIDNEY_TOTAL ([…], time 14 day): 2.7 g
- KIDNEY_L ([…], time 28 day): 1.6 g
- KIDNEY_R ([…], time 28 day): 1.6 g
- KIDNEY_TOTAL ([…], time 28 day): 3.3 g
- LIVER ([…], time 7 day): 18.4 g
- LIVER ([…], time 14 day): 24.3 g
- LIVER ([…], time 28 day): 31 g
- A/G ([…], time 7 day): 2.1
- ALP ([…], time 7 day): 604.6 IU/L
- ALT ([…], time 7 day): 35.6 IU/L
- AST ([…], time 7 day): 55.4 IU/L
- BUN ([…], time 7 day): 15.8 mg/dL
- CRE ([…], time 7 day): 0.7 mg/dL
- Ca ([…], time 7 day): 10.9 mg/dL
- Cl ([…], time 7 day): 104.4 meq/L
- DBIL ([…], time 7 day): 0.01 mg/dL
- GLC ([…], time 7 day): 173.4 mg/dL
- IP ([…], time 7 day): 8.9 mg/dL
- K ([…], time 7 day): 4.7 meq/L
- LDH ([…], time 7 day): 178.4 IU/L
- Na ([…], time 7 day): 138.8 meq/L
- PL ([…], time 7 day): 205.8 mg/dL
- RALB ([…], time 7 day): 4.2 g/dL
- TBIL ([…], time 7 day): 0.4 mg/dL
- TC ([…], time 7 day): 124.6 mg/dL
- TG ([…], time 7 day): 147.2 mg/dL
- TP ([…], time 7 day): 6.2 g/dL
- gamma-GTP ([…], time 7 day): 2.6 IU/L
- A/G ([…], time 14 day): 2
- ALP ([…], time 14 day): 379.8 IU/L
- ALT ([…], time 14 day): 32.8 IU/L
- AST ([…], time 14 day): 51.6 IU/L
- BUN ([…], time 14 day): 17.2 mg/dL
- CRE ([…], time 14 day): 0.6 mg/dL
- Ca ([…], time 14 day): 10.6 mg/dL
- Cl ([…], time 14 day): 107.4 meq/L
- DBIL ([…], time 14 day): 0.01 mg/dL
- GLC ([…], time 14 day): 165.6 mg/dL
- IP ([…], time 14 day): 8 mg/dL
- K ([…], time 14 day): 4.6 meq/L
- LDH ([…], time 14 day): 199.6 IU/L
- Na ([…], time 14 day): 140.4 meq/L
- PL ([…], time 14 day): 199.6 mg/dL
- RALB ([…], time 14 day): 4.4 g/dL
- TBIL ([…], time 14 day): 0.4 mg/dL
- TC ([…], time 14 day): 124 mg/dL
- TG ([…], time 14 day): 144.4 mg/dL
- TP ([…], time 14 day): 6.8 g/dL
- gamma-GTP ([…], time 14 day): 4 IU/L
- A/G ([…], time 28 day): 1.8
- ALP ([…], time 28 day): 213.2 IU/L
- ALT ([…], time 28 day): 41.6 IU/L
- AST ([…], time 28 day): 43.8 IU/L
- BUN ([…], time 28 day): 19.2 mg/dL
- CRE ([…], time 28 day): 0.7 mg/dL
- Ca ([…], time 28 day): 10.8 mg/dL
- Cl ([…], time 28 day): 105.4 meq/L
- DBIL ([…], time 28 day): 0.038 mg/dL
- GLC ([…], time 28 day): 151 mg/dL
- IP ([…], time 28 day): 8.4 mg/dL
- K ([…], time 28 day): 5 meq/L
- LDH ([…], time 28 day): 163.2 IU/L
- Na ([…], time 28 day): 143 meq/L
- PL ([…], time 28 day): 175 mg/dL
- RALB ([…], time 28 day): 4.7 g/dL
- TBIL ([…], time 28 day): 0.3 mg/dL
- TC ([…], time 28 day): 107.6 mg/dL
- TG ([…], time 28 day): 174 mg/dL
- TP ([…], time 28 day): 7.3 g/dL
- gamma-GTP ([…], time 28 day): 7.8 IU/L
